Results: ChEMBL document CHEMBL1146548, “New anthracene derivatives from Coussarea macrophylla” (J Nat Prod, 2003)

Tests used:
Staphylococcus aureus = test: Antibacterial activity against Staphylococcus aureus at 19 ug/disk by standard filter disk assay; type: functional; settings: read-out: IZ
Artemia salina = test: Toxicity against Artemia salina; type: organism-based; settings: in vivo

SMILES	zone of inhibition at 19 µg/disc (Staphylococcus aureus) [mm]	LC50 (Artemia salina) [ppm]
COc1c(C=O)cc(OC)c2c(OC)c3ccccc3cc12	12	> 280
COCc1c(OC)cc2c(c1OC)C(=O)c1ccccc1C2=O		> 280
